From ChEMBL document CHEMBL5154691, “Discovery of novel verinurad analogs as dual inhibitors of URAT1 and GLUT9 with improved Druggability for the treatment of hyperuricemia” (Eur J Med Chem, 2022)
pIC50: −log10 of the molar value.

Tests used:
[1] = biological target: T1, Solute carrier family 22 member 6 (Homo sapiens, UniProt Q4U2R8); assay: Inhibition of OAT1 (unknown origin) expressed in HEK293 cells assessed as inhibition of 6-CFL uptake preincubated for 30 mins followed by incubation with 6-CFL and measured after 15 mins by fluorescence based analysis; format: toxicity, cell-based
T1 sequence (Q4U2R8 whole entry): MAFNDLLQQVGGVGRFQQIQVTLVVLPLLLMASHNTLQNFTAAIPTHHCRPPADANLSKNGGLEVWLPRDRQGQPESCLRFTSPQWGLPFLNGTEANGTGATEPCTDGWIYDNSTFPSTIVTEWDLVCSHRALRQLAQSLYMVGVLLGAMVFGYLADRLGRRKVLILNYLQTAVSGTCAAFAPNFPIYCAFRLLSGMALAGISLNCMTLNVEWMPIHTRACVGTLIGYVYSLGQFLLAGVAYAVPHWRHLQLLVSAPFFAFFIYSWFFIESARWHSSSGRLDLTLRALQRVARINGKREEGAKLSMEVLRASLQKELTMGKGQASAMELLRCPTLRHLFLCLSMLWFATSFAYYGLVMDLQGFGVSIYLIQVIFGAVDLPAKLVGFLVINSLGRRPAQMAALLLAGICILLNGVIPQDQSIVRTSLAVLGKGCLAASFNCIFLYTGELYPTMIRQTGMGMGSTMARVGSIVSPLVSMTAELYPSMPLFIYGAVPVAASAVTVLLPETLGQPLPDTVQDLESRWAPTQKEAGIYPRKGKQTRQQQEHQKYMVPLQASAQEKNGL

Mus musculus [2] = assay: Anti-hyperuricemic activity against xanthine and potassium oxonate-induced acute hyperuricemia Kunming mouse model assessed as serum uric acid concentration at 10 mg/kg, po measured after 3 hrs (reference value: 846.22 uM); format: functional
[3] = biological target: T2, Solute carrier family 22 member 12 (Homo sapiens, UniProt Q96S37); assay: Inhibition of URAT1 (unknown origin)-mediated 14C-uric acid uptake expressed in HEK293 cells using 14C-uric acid as substrate preincubated for 30 mins followed by substrate addition and measured after 15 mins by liquid scintillation counting analysis; format: cell-based
T2 sequence (Q96S37 whole entry): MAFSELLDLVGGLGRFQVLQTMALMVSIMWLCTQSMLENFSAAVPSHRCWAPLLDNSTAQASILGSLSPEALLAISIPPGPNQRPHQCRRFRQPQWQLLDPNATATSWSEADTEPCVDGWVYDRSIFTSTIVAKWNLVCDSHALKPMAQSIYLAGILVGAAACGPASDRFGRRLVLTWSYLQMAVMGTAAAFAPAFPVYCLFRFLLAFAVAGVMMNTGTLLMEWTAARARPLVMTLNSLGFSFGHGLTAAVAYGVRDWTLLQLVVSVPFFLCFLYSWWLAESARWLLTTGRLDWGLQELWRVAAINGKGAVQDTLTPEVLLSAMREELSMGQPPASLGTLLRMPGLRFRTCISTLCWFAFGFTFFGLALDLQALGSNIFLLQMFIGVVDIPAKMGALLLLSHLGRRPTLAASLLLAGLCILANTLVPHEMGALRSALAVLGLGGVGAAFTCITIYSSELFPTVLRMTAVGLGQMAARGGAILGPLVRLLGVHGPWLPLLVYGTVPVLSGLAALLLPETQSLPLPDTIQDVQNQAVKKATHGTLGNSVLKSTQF

[4] = Cmax in Sprague-Dawley rat at 5 mg/kg, iv measured upto 36 hrs by LC-MS/MS analysis; format: ADME, organism-based; design: time < 36 hrs, dose 5 mg/kg, route iv; settings: in vivo
[5] = Inhibition of URAT1 I481M mutant (unknown origin)-mediated 14C-uric acid uptake expressed in HEK293 cells using 14C-uric acid as substrate preincubated for 30 mins followed by substrate addition and measured after 15 mins by liquid scintillation counting analysis; format: cell-based; settings: Homo sapiens
[6] = Tmax in Sprague-Dawley rat at 5 mg/kg, po measured upto 36 hrs by LC-MS/MS analysis; format: ADME, organism-based; settings: in vivo
[7] = biological target: T3, Broad substrate specificity ATP-binding cassette transporter ABCG2 (Homo sapiens, UniProt Q9UNQ0); assay: Inhibition of ABCG2 (unknown origin) expressed in HEK293 cells membrane vesicles assessed as inhibition of ATP-induced 14C-uric acid uptake preincubated for 15 mins followed by incubation with ATP and substrate for 5 mins by liquid scintillation counting analysis; format: toxicity, cell membranes, Membrane vesicle
T3 sequence (Q9UNQ0 whole entry): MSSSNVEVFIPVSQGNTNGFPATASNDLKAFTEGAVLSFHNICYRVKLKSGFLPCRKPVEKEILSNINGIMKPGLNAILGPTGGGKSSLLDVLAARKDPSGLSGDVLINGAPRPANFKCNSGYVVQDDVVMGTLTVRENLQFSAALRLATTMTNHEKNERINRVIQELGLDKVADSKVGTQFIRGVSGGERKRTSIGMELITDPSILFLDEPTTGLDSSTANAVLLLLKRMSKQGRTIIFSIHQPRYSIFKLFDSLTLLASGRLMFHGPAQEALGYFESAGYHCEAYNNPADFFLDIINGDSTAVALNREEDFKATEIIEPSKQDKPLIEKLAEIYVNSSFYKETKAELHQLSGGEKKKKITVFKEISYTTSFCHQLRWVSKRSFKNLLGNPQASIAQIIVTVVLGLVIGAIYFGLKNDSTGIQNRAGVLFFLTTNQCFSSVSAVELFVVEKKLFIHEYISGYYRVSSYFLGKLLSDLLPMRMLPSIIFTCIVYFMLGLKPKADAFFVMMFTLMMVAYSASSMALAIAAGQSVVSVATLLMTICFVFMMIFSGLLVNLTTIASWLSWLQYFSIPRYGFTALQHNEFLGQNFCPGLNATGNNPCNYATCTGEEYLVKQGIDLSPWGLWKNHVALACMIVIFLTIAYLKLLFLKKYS

Mus musculus [8] = assay: Anti-hyperuricemic activity against xanthine and potassium oxonate-induced acute hyperuricemia Kunming mouse model assessed as increase in urine uric acid concentration at 10 mg/kg, po measured for 24 hrs; format: functional
[9] = Tmax in Sprague-Dawley rat at 5 mg/kg, iv measured upto 36 hrs by LC-MS/MS analysis; format: ADME, organism-based; settings: in vivo
[10] = Cmax in Sprague-Dawley rat at 5 mg/kg, po measured upto 36 hrs by LC-MS/MS analysis; format: ADME, organism-based; design: time < 36 hrs, dose 5 mg/kg, route po; settings: in vivo
[11] = Half life in Sprague-Dawley rat at 5 mg/kg, po measured upto 36 hrs by LC-MS/MS analysis; format: ADME, organism-based; settings: in vivo
[12] = Half life in Sprague-Dawley rat at 5 mg/kg, iv measured upto 36 hrs by LC-MS/MS analysis; format: ADME, organism-based; settings: in vivo
[13] = AUC (0 to infinity) in Sprague-Dawley rat at 5 mg/kg, po by LC-MS/MS analysis; format: ADME, organism-based; design: time infinity, dose 5 mg/kg, route po; settings: in vivo
[14] = AUC (0 to infinity) in Sprague-Dawley rat at 5 mg/kg, iv by LC-MS/MS analysis; format: ADME, organism-based; design: time infinity, dose 5 mg/kg, route iv; settings: in vivo
[15] = MRT (0 to infinity) in Sprague-Dawley rat at 5 mg/kg, po by LC-MS/MS analysis; format: ADME, organism-based; settings: in vivo
[16] = MRT (0 to infinity) in Sprague-Dawley rat at 5 mg/kg, iv by LC-MS/MS analysis; format: ADME, organism-based; settings: in vivo
[17] = Oral bioavailability in Sprague-Dawley rat at 5 mg/kg measured upto 36 hrs by LC-MS/MS analysis; format: ADME, organism-based; settings: in vivo
[18] = Cytotoxicity against human HK-2 cells assessed as reduction in cell viability incubated for 24 hrs by MTT assay; format: toxicity, cell-based
[19] = Cytotoxicity against human HK-2 cells assessed as reduction in cell viability incubated for 48 hrs by MTT assay; format: toxicity, cell-based
[20] = Inhibition of URAT1 R487K mutant (unknown origin)-mediated 14C-uric acid uptake expressed in HEK293 cells using 14C-uric acid as substrate preincubated for 30 mins followed by substrate addition and measured after 15 mins by liquid scintillation counting analysis; format: cell-based; settings: Homo sapiens
[21] = Inhibition of URAT1 R477K mutant (unknown origin)-mediated 14C-uric acid uptake expressed in HEK293 cells using 14C-uric acid as substrate preincubated for 30 mins followed by substrate addition and measured after 15 mins by liquid scintillation counting analysis; format: cell-based; settings: Homo sapiens
[22] = Inhibition of URAT1 F365Y mutant (unknown origin)-mediated 14C-uric acid uptake expressed in HEK293 cells using 14C-uric acid as substrate preincubated for 30 mins followed by substrate addition and measured after 15 mins by liquid scintillation counting analysis; format: cell-based; settings: Homo sapiens
[23] = Inhibition of URAT1 F358Y mutant (unknown origin)-mediated 14C-uric acid uptake expressed in HEK293 cells using 14C-uric acid as substrate preincubated for 30 mins followed by substrate addition and measured after 15 mins by liquid scintillation counting analysis; format: cell-based; settings: Homo sapiens
[24] = Inhibition of URAT1 F241Y mutant (unknown origin)-mediated 14C-uric acid uptake expressed in HEK293 cells using 14C-uric acid as substrate preincubated for 30 mins followed by substrate addition and measured after 15 mins by liquid scintillation counting analysis; format: cell-based; settings: Homo sapiens
[25] = Inhibition of URAT1 S35N mutant (unknown origin)-mediated 14C-uric acid uptake expressed in HEK293 cells using 14C-uric acid as substrate preincubated for 30 mins followed by substrate addition and measured after 15 mins by liquid scintillation counting analysis; format: cell-based; settings: Homo sapiens

In the case of `CC(C)(Sc1ccncc1-c1ccc(C#N)c2ccccc12)C(=O)[O-].[Na+]`, the pIC50 [1] was 4.89, the Activity (Mus musculus [2]) was 625.24 µM and the pIC50 [3] was 6.77. For the same compound, the Cmax [4] was 13400 ng/mL, the pIC50 [5] was 6.03 and the Tmax [6] was 0.46 h. For the same compound, the pIC50 [7] was 4.73, the Activity (Mus musculus [8]) was 2371.02 µM and the Tmax [9] was 5.4 min. It also gave a Cmax [10] of 7210 ng/mL, a half-life [11] of 4.01 h and a half-life [12] of 3.49 h. It also gave an AUC(0-inf) [13] of 4130 ng·h/mL, an AUC(0-inf) [14] of 19700 ng·h/mL and an MRT inf [15] of 4.05 h. It also gave an MRT inf [16] of 3.46 h, a bioavailability [17] of 21.5% and an IC50 at 24 h [18] of 197 µM. For the same compound, the IC50 at 48 h [19] was 109 µM, the pIC50 [20] was 6.96 and the pIC50 [21] was 5.91. The pIC50 [22] was 5.30, the pIC50 [23] was 6.62 and the pIC50 [24] was 5.67. For the same compound, the pIC50 [25] was 5.38.
